Experimental data reported in patent US20220073536A1 (Rigel Pharmaceuticals, Inc., priority 2003, published 2022).
Like-named read-outs stand apart in the source and are kept apart here. Blank lines part the entries; values can stand above or below the molecule they belong to.

Test system: cultured human mast cells (CHMC)
Assay: CHMC low cell density IgE activation: tryptase assay
Assay type: cell-based
Details: IgE activation
Outline: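 Low-density CHMC, 1000-1500 cells/well in MT; 1 hr 37 °C; anti-IgE challenge 30 min 37 °C; supernatant tryptase via fluorogenic substrate, 30 min RT.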

[1] = Homo sapiens, Mast cell, low cell density CHMC, tryptase release, 3 pt, read-out: LD Tryptase, CHMC, IgE, 3 pt
[2] = Homo sapiens, Mast cell, low cell density CHMC, tryptase release, 8 pt, read-out: LD Tryptase, CHMC, IgE, 8 pt
[3] = Homo sapiens, Mast cell, low cell density CHMC, tryptase, 8 pt, read-out: LD Tryptase, CHMC, IgE, 8 pt
[4] = low cell density, 8 pt, read-out: LD Tryptase, CHMC, IgE, 8 pt
[5] = low cell density CHMC, tryptase, 3 pt, read-out: LD Tryptase, CHMC, IgE, 3 pt
[6] = low cell density CHMC, tryptase, 8 pt, read-out: LD Tryptase, CHMC, IgE, 8 pt
[7] = Homo sapiens, Mast cell, low cell density, 8 pt, read-out: LD Tryptase, CHMC, IgE, 8 pt
[8] = Homo sapiens, Mast cell, low cell density, 3 pt, read-out: LD Tryptase, CHMC, IgE, 3 pt
[9] = low cell density, 3 pt, read-out: LD Tryptase, CHMC, IgE, 3 pt
[10] = Homo sapiens, Mast cell, low cell density CHMC, tryptase, 3 pt, read-out: LD Tryptase, CHMC, IgE, 3 pt
[11] = low cell density CHMC, tryptase release, 8 pt, read-out: LD Tryptase, CHMC, IgE, 8 pt

Molecule: C[C@@H]1Oc2ccc(Nc3nc(Nc4ccc5c(cnn5CCCN5C(=O)CCCC5=O)c4)ncc3F)cc2NC1=O [Compound 861, (S)-N2-[1-[3-(2,6-Dioxopiperidino]propyl)indazol-5-yl]-5-fluoro-N4-(2-methyl-3-oxo-2H,4H-benz[1,4]oxazin-6-yl)-2,4-pyrimidinediamine]
IC50 [1]: < 10 µM
IC50 [2]: < 10 µM

Molecule: N4- (3,4-Dichlorophenyl)-5-fluoro-N2-[2- (4-morpholinomethyl)-1H-benzimidazol-5-yl]-2,4-pyrimidinediamine [Compound 959]
IC50 [4]: < 10 µM

Molecule: COC(=O)COc1cccc(Nc2ncc(F)c(Nc3ccc4c(c3)NC(=O)C(C)(C)O4)n2)c1C [Compound 1066, N4-(2,2-Dimethyl-3-oxo-4H-benz[1,4]oxazin-6-yl)-5-fluoro-N2-[3-methoxycarbonylmethyleneoxy-2-methylphenyl]-2,4-pyrimidinediamine]
IC50 (low cell density CHMC, tryptase readout, 3 pt, read-out: LD Tryptase, CHMC, IgE, 3 pt): < 10 µM

Molecule: N4- (2,2-Dimethyl-3-oxo-4H-5-pyrid[1,4]oxazin-6-yl)-N2- (1-methyl-2-trifluoromethylbenzimidazol-5-yl)-2,4-pyrimidinediamine [Compound 915]
IC50 [4]: < 10 µM

Molecule: COc1ccc(Nc2nc(Nc3ccc4c(c3)nc(C)n4CCCO)ncc2F)cc1Cl [Compound 948]
IC50 [7]: < 10 µM

Molecule: CC1C(=O)Nc2cc(Nc3nc(Cl)ncc3F)ccc2S1(=O)=O (racemic) [Compound 317, racemic-N2-Chloro-5-fluoro-N4-(2-methyl-1,1,3-trioxo-2H,4H-benzo[1,4]thiazin-6-yl)-4-pyrimidineamine]
IC50 (low cell density CHMC, tryptase release, 3 pt, read-out: LD Tryptase, CHMC, IgE, 3 pt): > 10 µM

Molecule: N4-[3,4- (Difluoromethylenedioxy)phenyl]-N2- (3,5-dimethylphenyl)-5-fluoro-2,4-pyrimidinediamine [Compound 563]
IC50 [9]: < 10 µM
IC50 [4]: < 10 µM

Molecule: COc1cc(Nc2ncc(F)c(Nc3cc(OC)cc(C(F)(F)F)c3)n2)cc(OC)c1 [Compound 332, N2-(3,5-Dimethoxyphenyl)-5-fluoro-N4-(3-methoxy-5-trifluoromethylphenyl)-2,4-pyrimidinediamine]
IC50 [1]: < 10 µM

Molecule: Cc1nc2cc(Nc3ncc(F)c(Nc4ccc(Cl)c(Cl)c4)n3)ccc2n1CCCO [Compound 947]
IC50 [7]: < 10 µM

Molecule: CC1(C)Oc2ccc(Nc3nc(Nc4cc(CO)cc(CO)c4)ncc3F)cc2NC1=O [Compound 344, N2-[3,5-Bis (hydoxymethylene)phenyl]-N4-(2,2-dimethyl-3-oxo-4H-benz[1,4]oxazin-6-yl)-5-fluoro-2,4-pyrimidinediamine]
IC50 [3]: < 10 µM

Molecule: CNC(=O)COc1cccc(Nc2ncc(F)c(Nc3ccc4c(c3)NC(=O)C(C)S4(=O)=O)n2)c1 (racemic) [Compound 285, racemic-5-Fluoro-N2-[3-(N-methylamino)carbonylmethyleneoxyphenyl]-N4-(2-methyl-1,1,3-trioxo-2H,4H-benzo[1,4]thiazin-6-yl)-2,4-pyrimidinediamine]
IC50 [11]: < 10 µM

Molecule: CCOC(=O)C(C)(C)Oc1ccc(Nc2nc(Cl)ncc2F)cc1Cl [Compound 407, 2-Chloro-N4-[3-chloro-4-(ethoxycarbonyl-1,1-dimethylmethyleneoxy)phenyl]-5-fluoro-4-pyrimidineamine]
IC50 [6]: < 10 µM

Molecule: CCN(CC)Cc1nc2cc(Nc3ncc(F)c(Nc4ccc5c(n4)NC(=O)C(C)(C)O5)n3)ccc2n1C [Compound 974, N2-[2-(N,N-Diethylaminomethyl)-1-methylbenzimidazol-5-yl]-N4-(2,2-dimethyl-3-oxo-4H-5-pyrido[1,4]oxazin-6-yl)-5-fluoro-2,4-pyrimidinediamine]
IC50 [9]: < 10 µM
IC50 [4]: < 10 µM

Molecule: CC1Sc2ccc(Nc3nc(Nc4cccc(O)c4)ncc3F)cc2NC1=O (racemic) [Compound 282]
IC50 [2]: < 10 µM

Molecule: CNC(=O)COc1cccc(Nc2ncc(F)c(Nc3ccc4c(c3)NC(=O)CS4(=O)=O)n2)c1 [Compound 305, 5-Fluoro-N2-[3-(N-methylamino)carbonylmethyleneoxyphenyl]-N4-(1,1,3-trioxo-2H,4H-benzo[1,4]thiazin-6-yl)-2,4-pyrimidinediamine]
IC50 [11]: < 10 µM

Molecule: C[C@@H]1Oc2ccc(Nc3nc(Nc4ccc5oncc5c4)ncc3F)cc2NC1=O [Compound 927]
IC50 [7]: < 10 µM

Molecule: CC(C)n1ncc2ccc(Nc3ncc(F)c(Nc4ccc5c(c4)NC(=O)[C@H](C)O5)n3)cc21 [Compound 786, (S)-N4-[2-Methyl-3-oxo-2H,4H-benz[1,4]oxazin-6-yl]-5-fluoro-N2-[1-(1-methylethyl)indazol-6-yl]-2,4-pyrimidinediamine]
IC50 [2]: < 10 µM

Molecule: Cc1nc2cc(Nc3ncc(F)c(Nc4ccc5c(n4)NC(=O)C(C)(C)O5)n3)ccc2n1CCO [Compound 903, N4-(2,2-Dimethyl-3-oxo-4H-5-pyrid[1,4]oxazin-6-yl)-5-fluoro-N2-[1-(2-hydroxyethyl)-2-methylbenzimidazol-5-yl)-2,4-pyrimidinediamine]
IC50 [7]: < 10 µM

Molecule: (S)-5-Fluoro-[1- (2-hydroxymethyl)-2-trifluoromethylbenzimidazol-5-yl]-N4- (2-methyl-3-oxo-2H,4H-benz[1,4]oxazin-6-yl)-2,4-pyrimidinediamine [Compound 923]
IC50 [4]: < 10 µM

Molecule: C[C@@H]1Oc2ccc(Nc3nc(Nc4ccc5cn[nH]c5c4)ncc3F)cc2NC1=O [Compound 200]
IC50 [2]: < 10 µM

Molecule: OCCCn1c(C(F)(F)F)nc2cc(Nc3ncc(F)c(Nc4ccc(Cl)c(Cl)c4)n3)ccc21 [Compound 937]
IC50 [8]: < 10 µM
IC50 [7]: < 10 µM

Molecule: CN1CCN(c2cccc(Nc3ncc(F)c(Nc4ccc5c(n4)NC(=O)C(C)(C)O5)n3)c2)CC1 [Compound 1080, N4-(2,2-Dimethyl-3-oxo-4H-5-pyrid [1,4]oxazin-6-yl)-5-fluoro-N2-[3-(4-methylpiperazino)phenyl]-2,4-pyrimidinediamine]
IC50 (low cell density CHMC, tryptase readout, 8 pt, read-out: LD Tryptase, CHMC, IgE, 8 pt): < 10 µM

The remaining lines, values ahead:

IC50 [3]: < 10 µM
Molecule: COc1cc(Nc2ncc(F)c(Nc3ccc4c(c3)OCCO4)n2)cc(C(F)(F)F)c1 [Compound 356, N4-(3,4-Ethylenedioxyphenyl)-5-fluoro-N2-(3-methoxy-5-trifluoromethylphenyl)-2,4-pyrimidinediamine]

IC50 [5]: < 10 µM
IC50 [6]: < 10 µM
Molecule: CNC(=O)Cn1ccc2cc(Nc3ncc(F)c(Nc4ccc5c(n4)NC(=O)C(C)(C)O5)n3)ccc21 [Compound 683, N4-(2,2-Dimethyl-3-oxo-4H-5-pyrid[1,4]oxazin-6-yl)-5-fluoro-N2-[1-(N-methylamino)carbonylmethyleneindol-5-yl]-2,4-pyrimidinediamine]

IC50 (low cell density CHMC, tryptase release, 8 point, read-out: LD Tryptase, CHMC, IgE, 8 pt): < 10 µM
Molecule: CNC(=O)Cn1ccc2cc(Nc3ncc(F)c(Nc4ccc(C(=O)NC)c(Cl)c4)n3)ccc21 [Compound 656, N4-[3-Chloro-4-(N-methylamino)carbonylphenyl]-5-fluoro-N2-[1-(N-methylamino)carbonylmethyleneindol-5-yl]-2,4-pyrimidinediamine]

IC50 [2]: < 10 µM
Molecule: COc1cc(Nc2ncc(F)c(Nc3ccc4c(c3)NC(=O)C(C)(C)S4(=O)=O)n2)cc(OC)c1OC [Compound 269]

IC50 [1]: < 10 µM
Molecule: Cc1cc(C)cc(N(c2cc(C)cc(C(F)(F)F)c2)c2nc(N)ncc2F)c1 [Compound 330]

IC50 [8]: < 10 µM
Molecule: CCN(CC)Cc1nc2cc(Nc3ncc(F)c(Nc4ccc(Cl)c(Cl)c4)n3)ccc2n1C [Compound 970]

IC50 [1]: < 10 µM
IC50 [2]: < 10 µM
Molecule: Fc1cnc(Nc2ccc3cc[nH]c3c2)nc1Nc1cccc(OC(F)(F)F)c1 [Compound 326, 5-Fluoro-N2-(indol-6-yl)-N4-(3-trifluoromethoxyphenyl)-2,4-pyrimidinediamine]

IC50 [10]: > 10 µM
Molecule: Cc1cc(N2CCN(C)CC2)ncc1Nc1ncc(F)c(NC2CCC2)n1 [Compound 1245]

IC50 [9]: < 10 µM
IC50 [4]: < 10 µM
Molecule: N4- (3,4-Dichlorophenyl)-5-fluoro-[1- (2-hydroxymethyl)-2-trifluoromethylbenzimidazol-5-yl]-2,4-pyrimidinediamine [Compound 920]

IC50 [10]: < 10 µM
Molecule: CCN1CCN(c2ccc(Nc3ncc(F)c(NC4CCCCC4)n3)cn2)CC1 [Compound 1232]

IC50 [8]: < 10 µM
IC50 [7]: < 10 µM
Molecule: COc1ccc(Nc2nc(Nc3cc(OC)c(OC)c(OC)c3)ncc2F)nc1Cl [Compound 876, N4-(2-Chloro-3-methoxypyrid-6-yl)-5-fluoro-N2-(3,4,5-trimethoxyphenyl)-2,4-pyrimidinediamine]

IC50 [5]: > 10 µM
IC50 [6]: > 10 µM
Molecule: N2- (4-Aminocarbonylphenyl)-5-fluoro-N4- (4-[N-[methoxycarbonylmethylene]aminocarbonyl]phenyl)-2,4-pyrimidinediamine [Compound 1333]

IC50 [2]: < 10 µM
Molecule: Cc1cc(C)cc(Nc2ncc(F)c(Nc3ccc4c(c3)NC(=O)[C@H](C)O4)n2)c1 [Compound 202, (S)-N2-(3,5-Dimethylphenyl)-5-fluoro-N4-(2-methyl-3-oxo-2H,4H-benz[1,4]oxazin-6-yl)-2,4-pyrimidinediamine]

IC50 [8]: < 10 µM
IC50 [7]: < 10 µM
Molecule: Cc1cc(C)cc(Nc2nc(Nc3cc(Cl)cc(Cl)c3)ncc2F)c1 [Compound 556]
